For one test, the target named is MELK (Homo sapiens, UniProt Q14680). Kind of test: Kinase assay (IMAP fluorescence polarization, FITC-labeled histone H3 peptide). It counts as biochemical. The note with it: 50 micro-M ATP. In outline:
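Kinase (0.8 ng/μL) reacted with 100 nM FITC-histone H3 peptide and 50 μM ATP in 20 mM HEPES, 0.3 mM MgCl2, 2 mM DTT, 0.01% Tween-20, pH 7.4, for 1 hour at room temperature. Phosphorylation read by IMAP fluorescence polarization after adding binding solution; IC50 from four-parameter fit.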

The test system of another test is HT1197 cells. Kind of test: Cell-based assay, anti-proliferative activity, MELK-negative control (Cell Counting Kit-8, 72 hours). The note with it: read-out: IC50 (μM) (HTll97). Also noted: species or system human. As to the method: 100 micro-L of cell suspension was seeded onto 96-well microtiter plate (ViewPlate-96FTC, PerkinElmer). The initial cell concentration of 22Rv1, T47D, A549, DU4475, and HT1197 were 3,000 cells/well, 2,000 cells/well and 2,500 cells/well, respectively. Cellular growth was determined using Cell Counting Kit-8 (DOJINDO) at 72 hours after the exposure of the candidate inhibitors. […] Accurate IC50 values were calculated as described previously.
For orientation: Formazan colour is commonly taken as a measure of viable cells.

The test system of a further test is DU4475 cells. In words: Cell-based assay, anti-proliferative activity (Cell Counting Kit-8, 72 hours). Also noted: species or system human. The note with it: read-out: IC50 (μM) (DU4475). In outline:
(§1)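 Cells seeded at 2,000–3,000 cells/well and exposed to candidate MELK inhibitors for 72 hours; growth measured with Cell Counting Kit-8. IC50 values calculated from the growth read-out.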

Another test deals with A549 cells. The description is as above. Also noted: species or system human. The note with it: read-out: IC50 (μM) (A549). The method, boiled down:
as §1

For a further test, the system named is 22Rv1 cells. The test is described as above. On the set-up: species or system human. Particulars: read-out: IC50 (μM) (22Rvl). The method, boiled down: as §1
In the next test the test system is T47D cells. The description is as above. Also noted: species or system human. The note with it: read-out: IC50 (μM) (T47D). In outline: as §1

Structures can show the parent of a compound that is named as a salt. Where two headings read alike, the source gives them in different places.

The source of these data is US9067937B2 (priority 2012, dated 2015).

What is called IC50 is the point on the concentration scale where inhibition reaches its midpoint.

Chain of MELK (Q14680 whole entry, looked up): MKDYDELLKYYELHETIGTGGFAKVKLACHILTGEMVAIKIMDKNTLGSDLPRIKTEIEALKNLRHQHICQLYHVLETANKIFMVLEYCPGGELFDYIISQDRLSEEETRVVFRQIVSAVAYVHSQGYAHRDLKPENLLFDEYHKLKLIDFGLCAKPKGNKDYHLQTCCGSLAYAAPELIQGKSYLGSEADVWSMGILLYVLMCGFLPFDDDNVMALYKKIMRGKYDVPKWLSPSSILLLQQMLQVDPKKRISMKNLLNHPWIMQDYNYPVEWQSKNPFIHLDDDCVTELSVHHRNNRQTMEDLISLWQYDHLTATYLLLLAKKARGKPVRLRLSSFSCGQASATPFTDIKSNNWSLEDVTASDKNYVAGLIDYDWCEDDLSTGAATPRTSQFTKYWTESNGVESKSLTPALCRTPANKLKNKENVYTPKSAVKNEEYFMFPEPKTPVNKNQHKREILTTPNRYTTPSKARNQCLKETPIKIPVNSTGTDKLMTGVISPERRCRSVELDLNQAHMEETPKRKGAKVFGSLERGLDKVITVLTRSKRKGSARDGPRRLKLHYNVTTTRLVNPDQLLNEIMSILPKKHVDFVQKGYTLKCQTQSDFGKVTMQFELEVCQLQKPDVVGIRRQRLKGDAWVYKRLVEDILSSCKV

In the case of `CN(C)[C@H]1CC[C@H](Nc2c(S(C)(=O)=O)cnc3ccc(-c4cc(F)c(O)c(Cl)c4)nc23)CC1` [Example 32, 2-Chloro-4-(8-(trans-4-(dimethylamino)-cyclohexylamino)-7-(methylsulfonyl)-1,5-naphthyridin-2-yl)-6-fluorophenol dihydrochloride], the IC50 amounted to 0.0016 µM at MELK; 3.1 µM in the test with HT1197 cells (Homo sapiens, HT1197, 72 h); 0.0063 µM with DU4475 cells (Homo sapiens, DU-4475, 72 h); 0.2 µM with A549 cells (Homo sapiens, A549, 72 h); 0.046 µM in the test with 22Rv1 cells (Homo sapiens, 22Rv1, 72 h); 0.024 µM in the test on T47D cells (Homo sapiens, T47D, 72 h).
As for `CC(=O)c1cnc2ccc(N3CCC(O)C3)nc2c1N[C@H]1CC[C@H](CN2CCC(O)C2)CC1` (stereo partly drawn) [Example 77, 1-(6-(3-Hydroxypyrrolidin-1-yl)-4-{trans-4-[(3-hydroxypyrrolidin-1-yl)methyl]-cyclohexylamino}-1,5-naphthyridin-3-yl)ethanone], the IC50 against MELK amounted to 0.74 µM; with HT1197 cells (Homo sapiens, HT1197, 72 h) it was 10 µM; in the test with DU4475 cells (Homo sapiens, DU-4475, 72 h), 10 µM; in the test with A549 cells (Homo sapiens, A549, 72 h), 10 µM; with 22Rv1 cells (Homo sapiens, 22Rv1, 72 h), 10 µM; in the test on T47D cells (Homo sapiens, T47D, 72 h) it was 10 µM.
As to `CC(=O)c1cnc2ccc(-c3cc(Cl)c(O)c(Cl)c3)nc2c1Nc1ccc(CCN(C)C)cc1` [Example 29, 1-[6-(3,5-Dichloro-4-hydroxyphenyl)-4-{4-[2-(dimethylamino)ethyl]phenylamino}-1,5-naphthyridin-3-yl)ethanone dihydrochloride], the 50% inhibitory concentration (IC50) against MELK stood at 0.0026 µM; in the test on HT1197 cells (Homo sapiens, HT1197, 72 h), 0.68 µM; with DU4475 cells (Homo sapiens, DU-4475, 72 h), 0.028 µM; in the test on A549 cells (Homo sapiens, A549, 72 h) it was 0.11 µM; in the test on 22Rv1 cells (Homo sapiens, 22Rv1, 72 h) it was 0.084 µM; in the test on T47D cells (Homo sapiens, T47D, 72 h), 0.085 µM.
Turning to `CC(=O)c1cnc2ccc(-c3cc(Cl)c(O)c(Cl)c3)nc2c1N[C@H]1CC[C@H](NC(=O)C(N)C(C)C)CC1` (stereo partly drawn) [Example 79, N-{trans-4-[3-Acetyl-6-(3,5-dichloro-4-hydroxyphenyl)-1,5-naphthyridin-4-ylamino]-cyclohexyl}-2-amino-3-methylbutanamide dihydrochloride], the IC50 on MELK was 0.0016 µM; with HT1197 cells (Homo sapiens, HT1197, 72 h) it was 3.9 µM; in the test on DU4475 cells (Homo sapiens, DU-4475, 72 h) it was 0.016 µM; in the test with A549 cells (Homo sapiens, A549, 72 h), 0.11 µM; with 22Rv1 cells (Homo sapiens, 22Rv1, 72 h), 0.038 µM; with T47D cells (Homo sapiens, T47D, 72 h), 0.018 µM.
Turning to “1-[6-(3,5-Dichloro-4-hydroxyphenyl)-4-(trans-4-hydroxycyclohexylamino)-1,5-naphthyridin-3-yl]-ethanone hydrochloride [Example 91]”, the IC50 against MELK worked out at 0.015 µM; in the test on HT1197 cells (HT1197 cells (MELK-negative control), 72 hours), 0.33 µM; with DU4475 cells (DU4475 cells, 72 hours), 0.016 µM; in the test on A549 cells (A549 cells, 72 hours), 0.048 µM; in the test with 22Rv1 cells (22Rv1 cells, 72 hours), 0.072 µM; with T47D cells (T47D cells, 72 hours), 0.038 µM.
For `CC(=O)c1cnc2ccc(-c3ccc(O)nc3)nc2c1N[C@H]1CC[C@H](CN(C)C)CC1` [Example 86, 1-(4-{trans-4-[(Dimethylamino)methyl]cyclohexylamino}-6-(6-hydroxypyridin-3-yl)-1,5-naphthyridin-3-yl)ethanone dihydrochloride], the IC50 on MELK came out at 0.011 µM; in the test with HT1197 cells (Homo sapiens, HT1197, 72 h) it was 10 µM; with DU4475 cells (Homo sapiens, DU-4475, 72 h), 6.5 µM; in the test on A549 cells (Homo sapiens, A549, 72 h), 8 µM; in the test with 22Rv1 cells (Homo sapiens, 22Rv1, 72 h) it was 5.3 µM; with T47D cells (Homo sapiens, T47D, 72 h) it was 6.2 µM.
For `CC(=O)c1cnc2ccc(-c3cc(Cl)c(O)c(Cl)c3)nc2c1Nc1cnn(C2CCN(C)CC2)c1` [Example 33, 1-[6-(3,5-Dichloro-4-hydroxyphenyl)-4-[1-(1-methylpiperidin-4-yl)-1H-pyrazol-4-ylamino]-1,5-naphthyridin-3-yl]ethanone dihydrochloride], the IC50 on MELK was found to be 0.0078 µM; in the test on HT1197 cells (Homo sapiens, HT1197, 72 h) it was 100 µM; in the test on DU4475 cells (Homo sapiens, DU-4475, 72 h), 0.34 µM; in the test with A549 cells (Homo sapiens, A549, 72 h) it was 0.93 µM; with 22Rv1 cells (Homo sapiens, 22Rv1, 72 h), 0.64 µM; in the test on T47D cells (Homo sapiens, T47D, 72 h), 0.35 µM.
Consider `N[C@H]1CCCN(c2ccc(Nc3c(C(=O)C4CC4)cnc4ccc(-c5cc(Cl)c(O)c(Cl)c5)nc34)cn2)C1` [Example 40, (S)-{4-[6-(3-Aminopiperidin-1-yl)pyridin-3-ylamino]-6-(3,5-dichloro-4-hydroxyphenyl)-1,5-naphthyridin-3-yl}(cyclopropyl)methanone trihydrochloride], for which the IC50 against MELK came to 0.0012 µM; in the test on HT1197 cells (Homo sapiens, HT1197, 72 h), 4.2 µM; with DU4475 cells (Homo sapiens, DU-4475, 72 h) it was 0.02 µM; with A549 cells (Homo sapiens, A549, 72 h) it was 0.29 µM; in the test with 22Rv1 cells (Homo sapiens, 22Rv1, 72 h), 0.034 µM; with T47D cells (Homo sapiens, T47D, 72 h) it was 0.025 µM.
As to `CC(=O)c1cnc2ccc(-c3cc(Cl)c(O)c(Cl)c3)nc2c1Nc1ccc(CN2CCN(C)CC2)cc1` [Example 34, 1-(6-(3,5-Dichloro-4-hydroxyphenyl)-4-(4-((4-methylpiperazin-1-yl)methyl)-phenylamino)-1,5-naphthyridin-3-yl)ethanone trihydrochloride], the IC50 on MELK came out at 0.0061 µM; in the test with HT1197 cells (Homo sapiens, HT1197, 72 h), 1.6 µM; in the test with DU4475 cells (Homo sapiens, DU-4475, 72 h), 0.096 µM; in the test on A549 cells (Homo sapiens, A549, 72 h), 0.19 µM; in the test on 22Rv1 cells (Homo sapiens, 22Rv1, 72 h) it was 0.21 µM; in the test on T47D cells (Homo sapiens, T47D, 72 h) it was 0.11 µM.
As to `CN(C)C[C@H]1CC[C@H](Nc2c(C(=O)CO)cnc3ccc(-c4cc(Cl)c(O)c(Cl)c4)nc23)CC1` [Example 44, 1-[6-(3,5-Dichloro-4-hydroxyphenyl)-4-{trans-4-[(dimethylamino)methyl]cyclohexyl-amino}-1,5-naphthyridin-3-yl]-2-hydroxyethanone dihydrochloride], the IC50 worked out at 0.0003 µM at MELK; 0.2 µM in the test with HT1197 cells (Homo sapiens, HT1197, 72 h); 0.0017 µM in the test with DU4475 cells (Homo sapiens, DU-4475, 72 h); 0.0067 µM in the test on A549 cells (Homo sapiens, A549, 72 h); 0.006 µM with 22Rv1 cells (Homo sapiens, 22Rv1, 72 h); 0.0029 µM in the test with T47D cells (Homo sapiens, T47D, 72 h).
Take `COc1cc(-c2ccc3ncc(S(C)(=O)=O)c(Nc4ccc(OCCN(C)C)nc4)c3n2)cc(Cl)c1O` [Example 26, 2-Chloro-4-(8-(6-(2-(dimethylamino)-ethoxy)pyridin-3-ylamino)-7-(methylsulfonyl)-1,5-naphthyridin-2-yl)-6-methoxyphenol dihydrochloride]: the half-inhibitory concentration (IC50) against MELK is 0.01 µM; with HT1197 cells (Homo sapiens, HT1197, 72 h) it was 15 µM; in the test on DU4475 cells (Homo sapiens, DU-4475, 72 h) it was 1.6 µM; in the test with A549 cells (Homo sapiens, A549, 72 h), 3.1 µM; in the test on 22Rv1 cells (Homo sapiens, 22Rv1, 72 h), 4.1 µM; in the test on T47D cells (Homo sapiens, T47D, 72 h) it was 1 µM.
As to `N[C@@H]1CCCN(c2ccc(Nc3c(C(=O)C4CC4)cnc4ccc(-c5cc(Cl)c(O)c(Cl)c5)nc34)cn2)C1` [Example 201, (R)-(4-{[6-(3-aminopiperidin-1-yl)pyridin-3-yl]amino}-6-(3,5-dichloro-4-hydroxyphenyl)-1,5-naphthyridin-3-yl) (cyclopropyl)methanone], the IC50 against MELK worked out at 0.00093 µM; with HT1197 cells (Homo sapiens, HT1197, 72 h) it was 0.032 µM; in the test on DU4475 cells (Homo sapiens, DU-4475, 72 h), 0.003 µM; with A549 cells (Homo sapiens, A549, 72 h), 0.0061 µM; with 22Rv1 cells (Homo sapiens, 22Rv1, 72 h) it was 0.0061 µM; in the test with T47D cells (Homo sapiens, T47D, 72 h), 0.0025 µM.
Regarding `N[C@H]1CCCN(c2ccc(Nc3c(C(=O)C4CCC4)cnc4ccc(-c5cc(F)c(O)c(Cl)c5)nc34)cn2)C1` [Example 210, (S)-(4-((6-(3-aminopiperidin-1-yl)pyridin-3-yl)amino)-6-(3-chloro-5-fluoro-4-hydroxyphenyl)-1,5-naphthyridin-3-yl)(cyclobutyl)methanone dihydrochloride], the concentration for half-maximal inhibition (IC50) was 0.0014 µM against MELK; 1.4 µM in the test with HT1197 cells (Homo sapiens, HT1197, 72 h); 0.022 µM with DU4475 cells (Homo sapiens, DU-4475, 72 h); 0.042 µM with A549 cells (Homo sapiens, A549, 72 h); 0.017 µM in the test on 22Rv1 cells (Homo sapiens, 22Rv1, 72 h); 0.0093 µM in the test on T47D cells (Homo sapiens, T47D, 72 h).
Turning to `CC(=O)c1cnc2ccc(-c3cc(F)c(O)c(Cl)c3)nc2c1Nc1ccc(OCCN(C)C)nc1` [Example 22, 1-[6-(3-Chloro-5-fluoro-4-hydroxyphenyl)-4-{6-[2-(dimethylamino)ethoxy]pyridin-3-ylamino}-1,5-naphthyridin-3-yl)ethanone dihydrochloride], the IC50 amounted to 0.015 µM against MELK; 3.5 µM with HT1197 cells (Homo sapiens, HT1197, 72 h); 0.31 µM with DU4475 cells (Homo sapiens, DU-4475, 72 h); 0.29 µM in the test on A549 cells (Homo sapiens, A549, 72 h); 0.35 µM in the test with 22Rv1 cells (Homo sapiens, 22Rv1, 72 h); 0.1 µM with T47D cells (Homo sapiens, T47D, 72 h).
Regarding `CC(=O)c1cnc2ccc(-c3cc(F)c(O)c(Cl)c3)nc2c1Nc1ccc(N2CCCC(N)C2)nc1` (stereo not drawn) [Example 65, 1-(4-{[6-(3-Aminopiperidin-1-yl)pyridin-3-yl]amino}-6-(3-chloro-5-fluoro-4-hydroxyphenyl)-1,5-naphthyridin-3-yl)ethanone trihydrochloride], the IC50 against MELK was found to be 0.0031 µM; in the test on HT1197 cells (Homo sapiens, HT1197, 72 h) it was 0.74 µM; in the test on DU4475 cells (Homo sapiens, DU-4475, 72 h), 0.015 µM; in the test on A549 cells (Homo sapiens, A549, 72 h), 0.021 µM; in the test with 22Rv1 cells (Homo sapiens, 22Rv1, 72 h), 0.013 µM; with T47D cells (Homo sapiens, T47D, 72 h), 0.0047 µM.
